PMC11003488 (Journal of Enzyme Inhibition and Medicinal Chemistry, 2023)

Experiments:
Assay type in all cases: cell-based
OVCAR-8 = test: NCI-60 SRB growth inhibition, one-dose and five-dose; conditions: Homo sapiens
OVCAR-3 = test: as above; conditions: Homo sapiens
SNB-19 = test: as above; conditions: Homo sapiens
MDA-MB-435 = test: as above; conditions: Homo sapiens
CAKI-1 = test: as above; conditions: Homo sapiens
OVCAR-4 = test: as above; conditions: Homo sapiens
HCC-2998 = test: as above; conditions: Homo sapiens
CCRF-CEM = test: as above; conditions: Homo sapiens
NCI-H322M = test: as above; conditions: Homo sapiens
KM12 = test: as above; conditions: Homo sapiens
SK-MEL-2 = test: as above; conditions: Homo sapiens
NCI-H226 = test: as above; conditions: Homo sapiens
A498 = test: as above; conditions: Homo sapiens
IGROV1 = test: as above; conditions: Homo sapiens
PC-3 = test: as above; conditions: Homo sapiens
SN12C = test: as above; conditions: Homo sapiens, read-out: percent growth inhibition
MALME-3M = test: as above; conditions: Homo sapiens
MCF7 = test: as above; conditions: Homo sapiens
K-562 = test: as above; conditions: Homo sapiens
RXF 393 = test: as above; conditions: Homo sapiens
RPMI-8226 = test: as above; conditions: Homo sapiens
SR = test: as above; conditions: Homo sapiens
NCI-H23 = test: as above; conditions: Homo sapiens
SF-268 = test: as above; conditions: Homo sapiens
NCI-H522 = test: as above; conditions: Homo sapiens
COLO 205 = test: as above; conditions: Homo sapiens
ACHN = test: as above; conditions: Homo sapiens
UACC-257 = test: as above; conditions: Homo sapiens
MOLT-4 = test: as above; conditions: Homo sapiens
SK-MEL-28 = test: as above; conditions: Homo sapiens
HL-60(TB) = test: cells; conditions: Homo sapiens
HCT-15 = test: NCI-60 SRB growth inhibition, one-dose and five-dose; conditions: Homo sapiens
SNB-75 = test: as above; conditions: Homo sapiens
HT29 = test: as above; conditions: Homo sapiens
786-0 = test: as above; conditions: Homo sapiens
M14 = test: as above; conditions: Homo sapiens
EKVX = test: as above; conditions: Homo sapiens
T-47D = test: as above; conditions: Homo sapiens, T47D
HS 578 T = test: as above; conditions: Homo sapiens
MDA-MB-468 = test: as above; conditions: Homo sapiens
LOX IMVI = test: as above; conditions: Homo sapiens
U251 = test: as above; conditions: Homo sapiens
NCI/ADR-RES = test: as above; conditions: Homo sapiens
[1] = read-out: percent growth inhibition

## CC(=O)Nc1ccc(/C=C/C(=O)c2cccc(NCc3ccc(CO)cc3)c2)cc1 [Compound 5j, (E)-N-(4–(3-(3-((4-(hydroxymethyl)benzyl)amino)phenyl)-3-oxoprop-1-en-1-yl)phenyl) acetamide]
OVCAR-8; OVCAR-8
  GI50: 14.8 µM
OVCAR-8; OVCAR-8, read-out: percent growth inhibition
  inhibition at 10 µM: 130%
OVCAR-3; OVCAR-3
  GI50: 4.63 µM
OVCAR-3; OVCAR-3, read-out: percent growth inhibition
  inhibition at 10 µM: 138%
SNB-19; SNB-19
  GI50: 10.1 µM
SNB-19; SNB-19, read-out: percent growth inhibition
  inhibition at 10 µM: 114%
MDA-MB-435; MDA-MB-435
  GI50: 13.8 µM
MDA-MB-435; MDA-MB-435, read-out: percent growth inhibition
  inhibition at 10 µM: 79.8%
CAKI-1; CAKI-1
  GI50: 14.8 µM
CAKI-1; CAKI-1, read-out: percent growth inhibition
  inhibition at 10 µM: 134%
OVCAR-4; OVCAR-4
  GI50: 14.8 µM
OVCAR-4; OVCAR-4, read-out: percent growth inhibition
  inhibition at 10 µM: 75.5%
HCC-2998; HCC 2998
  GI50: 13.2 µM
HCC-2998; HCC 2998, read-out: percent growth inhibition
  inhibition at 10 µM: 199%
CCRF-CEM
  GI50: 8.8 µM
CCRF-CEM; [1]
  inhibition at 10 µM: 121%
NCI-H322M
  GI50: 14.4 µM
NCI-H322M; [1]
  inhibition at 10 µM: 38.8%
KM12; KM12
  GI50: 3.93 µM
KM12; KM12, read-out: percent growth inhibition
  inhibition at 10 µM: 158%
SK-MEL-2; SK-MEL-2
  GI50: 15.3 µM
SK-MEL-2; SK-MEL-2, read-out: percent growth inhibition
  inhibition at 10 µM: 53.9%
NCI-H226; NCI-H226
  GI50: 13.7 µM
NCI-H226; NCI-H226, read-out: percent growth inhibition
  inhibition at 10 µM: 138%
A498; A498
  GI50: 15 µM
A498; A498, read-out: percent growth inhibition
  inhibition at 10 µM: 3.83%
IGROV1; IGROV-1
  GI50: 6.71 µM
IGROV1; IGROV-1, read-out: percent growth inhibition
  inhibition at 10 µM: 119%
PC-3; PC-3
  GI50: 12.3 µM
PC-3; PC-3, read-out: percent growth inhibition
  inhibition at 10 µM: 81.8%
SN12C
  inhibition at 10 µM: 149%
MALME-3M
  GI50: 11 µM
MALME-3M; [1]
  inhibition at 10 µM: 141%
MCF7; MCF7
  GI50: 3.19 µM
MCF7; MCF7, read-out: percent growth inhibition
  inhibition at 10 µM: 126%
K-562; K562
  GI50: 3.43 µM
K-562; K562, read-out: percent growth inhibition
  inhibition at 10 µM: 104%
RXF 393; RXF 393
  GI50: 11.8 µM
RXF 393; RXF 393, read-out: percent growth inhibition
  inhibition at 10 µM: 190%
RPMI-8226; RPMI-8226
  GI50: 2.84 µM
RPMI-8226; RPMI-8226, read-out: percent growth inhibition
  inhibition at 10 µM: 134%
SR
  GI50: 2.61 µM
NCI-H23; NCI-H23
  GI50: 13.9 µM
NCI-H23; NCI-H23, read-out: percent growth inhibition
  inhibition at 10 µM: 95.9%
SF-268; SF-268
  GI50: 15.4 µM
SF-268; SF-268, read-out: percent growth inhibition
  inhibition at 10 µM: 88.8%
NCI-H522; NCI-H522
  GI50: 5 µM
NCI-H522; NCI-H522, read-out: percent growth inhibition
  inhibition at 10 µM: 178%
COLO 205; COLO 205
  GI50: 16 µM
COLO 205; COLO 205, read-out: percent growth inhibition
  inhibition at 10 µM: 150%
ACHN
  GI50: 10.3 µM
ACHN; [1]
  inhibition at 10 µM: 155%
UACC-257; UACC-257
  GI50: 11.7 µM
UACC-257; UACC-257, read-out: percent growth inhibition
  inhibition at 10 µM: 135%
MOLT-4; MOLT-4
  GI50: 2.85 µM
MOLT-4; MOLT-4, read-out: percent growth inhibition
  inhibition at 10 µM: 120%
SK-MEL-28; SK-MEL-28
  GI50: 13.4 µM
SK-MEL-28; SK-MEL-28, read-out: percent growth inhibition
  inhibition at 10 µM: 167%
HL-60(TB); HL-60
  GI50: 11.6 µM
HL-60(TB); HL-60, read-out: percent growth inhibition
  inhibition at 10 µM: 138%
HCT-15; HCT-15
  GI50: 4.63 µM
HCT-15; HCT-15, read-out: percent growth inhibition
  inhibition at 10 µM: 140%
SNB-75; SNB-75
  GI50: 11.9 µM
SNB-75; SNB-75, read-out: percent growth inhibition
  inhibition at 10 µM: 18.2%
HT29; HT-29
  GI50: 6.06 µM
HT29; HT-29, read-out: percent growth inhibition
  inhibition at 10 µM: 180%
786-0; 786-0
  GI50: 14.1 µM
786-0; 786-0, read-out: percent growth inhibition
  inhibition at 10 µM: 186%
M14; M14
  GI50: 14.3 µM
M14; M14, read-out: percent growth inhibition
  inhibition at 10 µM: 146%
EKVX
  GI50: 14.4 µM
EKVX; [1]
  inhibition at 10 µM: 88.9%
T-47D
  GI50: 13.5 µM
T-47D; [1]
  inhibition at 10 µM: 70.2%
HS 578 T
  GI50: 18.9 µM
HS 578 T; [1]
  inhibition at 10 µM: 57.9%
MDA-MB-468; MDA-MB-468
  GI50: 6.27 µM
MDA-MB-468; MDA-MB-468, read-out: percent growth inhibition
  inhibition at 10 µM: 171%
LOX IMVI
  GI50: 2.96 µM
LOX IMVI; [1]
  inhibition at 10 µM: 194%
U251; U-251
  GI50: 3.6 µM
U251; U-251, read-out: percent growth inhibition
  inhibition at 10 µM: 195%
NCI/ADR-RES
  GI50: 16.8 µM
NCI/ADR-RES; [1]
  inhibition at 10 µM: 126%
